Measured values taken from patent US20090264485A1, “Pyrazole Derivatives, Their Manufacture and Their Use as Pharmaceutical Agents” (priority 2005, published 2009).

How the values were obtained:
HEK293 cells = test: CellTiter-Glo Luminescent Cell Viability Assay in HEK293 cells; assay type: cell-based; conditions: Homo sapiens, 168 h, 7 days incubation, CellTiter-Glo luminescence
Excerpt: CellTiter-Glo™ Assay in HEK293 Cells
The CellTiter-Glo™ Luminescent Cell Viability Assay (Promega) is a homogeneous method of determining the number of viable cells in culture based on quantitation of the ATP present, which signals the presence of metabolically active cells.
HEK293 cells (human embryonic kidney cell line transformed by Adenovirus 5 fragments, ATCC-No. CRL 1573) were cultivated in Dulbecco's Modified Eagle Medium (DMEM) with Glutamax™ (Invitrogen, 31966-021), 5% Fetal Calf Serum (FCS, Sigma Cat-No. F4135 (FBS)), 100 Units/ml penicillin/100 μg/ml streptomycin (=Pen/Strep from Invitrogen Cat. No. 15140). For the assay the cells were seeded in 384 well plates, 5000 cells per well, in the same medium. The next day the test compounds were added in various concentrations ranging from 3 μM to 0.00015 μM (10 concentrations, 1:3 diluted). After 7 days the CellTiter-Glo™ assay was done according to the instructions of the manufacturer (CellTiter-Glo™ Luminescent Cell Viability Assay, from Promega). In brief: the cell-plate was equilibrated to room temperature for approximately 30 minutes and than the CellTiter-Glo™ reagent was added. The contents were carefully mixed for 15 minutes to induce cell lysis. After 45 minutes the luminescent signal was measured in Victor 2, (scanning multiwell spectrophotometer, Wallac).
• Medium: Dulbecco's Modified Eagle Medium (DMEM) with Glutamax™ (Invitrogen, 31966-021), 5% Fetal Calf Serum (FCS, Sigma Cat-No. F4135 (FBS)), Pen/Strep (Invitrogen Cat. No. 15140). • HEK293 (ATCC-No. CRL 1573): 5000 cells in 60 μl per well of 384 well plate (Greiner 781098, white plates) • Incubate 24 h at 37° C., 5% CO2
In general the dilution steeps are 1:3 • a) Add 8 μl of 10 mM stock solution of compound to 72 μl DMSO • b) dilute 9×1:3 (always 30 μl to 60 μl DMSO) in this DMSO dilution row (results in 10 wells with concentrations from 1000 μM to 0.06 μM) • c) dilute each concentration 1:4.8 (10 μl compound dilution to 38 μl medium) • d) dilute each concentration 1:10 (10 μl compound dilution to 90 μl medium) • e) add 10 μl of every concentration to 60 μl medium in the cell plate • resulting in final concentration of DMSO: 0.3% in every well • and resulting in final concentration of compounds from 3 μM to 0.00015 μM • Incubate 168 h (7 days) at 37° C., 5% CO2
• Add 30 μl CellTiter-Glo™ Reagent/well, • shake 15 minutes at room temperature • incubate further 45 minutes at room temperature without shaking.
• Victor 2 scanning multiwell spectrophotometer (Wallac), Luminescence mode • Determine IC50 with XL-fit (XLfit software (ID Business Solution Ltd., Guilford, Surrey, UK)).

Work on `Cc1cc(OCc2coc(/C=C/c3ccc(C(F)(F)F)cc3F)n2)ccc1COCCc1ccnn1C` [Example 4, 2-[2-(E)-(2-Fluoro-4-trifluoromethyl-phenyl)-vinyl]-4-{3-methyl-4-[2-(2-methyl-2H-pyrazol-3-yl)-ethoxymethyl]-phenoxymethyl}-oxazole] yielded an IC50 (HEK293 cells) of 5 to 250 nM.
For `Cc1cc(OCc2coc(/C=C/c3ccc(Cl)cc3)n2)ccc1COCCc1ccnn1C` [Example 3, 2-[2-(E)-(4-Chloro-phenyl)-vinyl]-4-{3-methyl-4-[2-(2-methyl-2H-pyrazol-3-yl)-ethoxymethyl]-phenoxymethyl}-oxazole], the IC50 (HEK293 cells) was 5 to 250 nM and the melting point was 106 to 107 °C.
`Cn1nccc1CC[S+]([O-])Cc1ccc(OCc2coc(/C=C/c3ccc(OC(F)(F)F)cc3)n2)cc1` (centres unmarked) [Example 8, 4-{4-[2-(2-Methyl-2H-pyrazol-3-yl)-ethanesulfinylmethyl]-phenoxymethyl}-2-[2-(E)-(4-trifluoromethoxy-phenyl)-vinyl]-oxazole] gave an IC50 (HEK293 cells) of 250 to 1000 nM and a melting point of 144 to 146 °C.
For `Cc1cc(OCc2coc(/C=C/c3ccc(Cl)cc3)n2)ccc1C[S+]([O-])CCc1ccnn1C` (centres unmarked) [Example 6, 2-[2-(E)-(4-Chloro-phenyl)-vinyl]-4-{3-methyl-4-[2-(2-methyl-2H-pyrazol-3-yl)-ethanesulfinylmethyl]-phenoxymethyl}-oxazole], the IC50 (HEK293 cells) was 5 to 250 nM and the melting point was 169 to 171 °C.
In the case of `Cc1cc(OCc2coc(/C=C/c3ccc(C(F)(F)F)cc3)n2)ccc1C[S+]([O-])CCc1ccnn1C` (centres unmarked) [Example 7, 4-{3-Methyl-4-[2-(2-methyl-2H-pyrazol-3-yl)-ethanesulfinylmethyl]-phenoxymethyl}-2-[2-(E)-(4-trifluoromethyl-phenyl)-vinyl]-oxazole], the IC50 (HEK293 cells) is reported as 5 to 250 nM and the melting point is reported as 161 to 162 °C.
For `Cc1cc(OCc2coc(/C=C/c3ccc(OC(F)(F)F)cc3)n2)ccc1C[S+]([O-])CCc1ccnn1C` (centres unmarked) [Example 5, 4-{3-Methyl-4-[2-(2-methyl-2H-pyrazol-3-yl)-ethanesulfinylmethyl]-phenoxymethyl}-2-[2-(E)-(4-trifluoromethoxy-phenyl)-vinyl]-oxazole], the melting point was 138 to 139 °C.
For `Cc1cc(OCc2coc(/C=C/c3ccc(OC(F)(F)F)cc3)n2)ccc1COCCc1ccnn1C` [Example 1, 4-{3-Methyl-4-[2-(E)-(2-methyl-2H-pyrazol-3-yl)-ethoxymethyl]-phenoxymethyl}-2-[2-(4-trifluoromethoxy-phenyl)-vinyl]-oxazole], the IC50 (HEK293 cells) was 95 nM and the melting point was 77 to 78 °C.
In the case of `Cn1nccc1CCS(=O)(=O)Cc1ccc(OCc2coc(/C=C/c3ccc(C(F)(F)F)cc3)n2)cc1` [Example 10, 4-{4-[2-(2-Methyl-2H-pyrazol-3-yl)-ethanesulfonylmethyl]-phenoxymethyl}-2-[2-(4-trifluoromethyl-phenyl)-vinyl]-oxazole], the melting point is reported as 204 °C.
Molecule `Cc1cc(OCc2coc(/C=C/c3ccc(C(F)(F)F)cc3)n2)ccc1COCCc1ccnn1C` [Example 2, 4-{3-Methyl-4-[2-(E)-(2-methyl-2H-pyrazol-3-yl)-ethoxymethyl]-phenoxymethyl}-2-[2-(4-trifluoromethyl-phenyl)-vinyl]-oxazole] has an IC50 (HEK293 cells) of 5 to 250 nM and a melting point of 96 to 97 °C.
With `Cn1nccc1CC[S+]([O-])Cc1ccc(OCc2coc(/C=C/c3ccc(C(F)(F)F)cc3)n2)cc1` (centres unmarked) [Example 9, 4-{4-[2-(2-Methyl-2H-pyrazol-3-yl)-ethanesulfinylmethyl]-phenoxymethyl}-2-[2-(E)-(4-trifluoromethyl-phenyl)-vinyl]-oxazole] the IC50 (HEK293 cells) was 250 to 1000 nM and the melting point was 172 to 174 °C.
